From patent US20230085307A1, “PYRIDAZINONE COMPOUND AND HERBICIDE” (NISSAN CHEMICAL CORPORATION, priority 2019, published 2023)

Tests used:
[1] = tested on: southern crabgrass; assay: Test Example 5: herbicidal effect by foliage application, plastic box (Table 20, symbol F); assay type: in vivo, southern crabgrass (Digitaria ciliaris); conditions: foliage application, evaluated three weeks after application
Summary of the method: (§1)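 Sow seeds spot-wise in sterilized diluvial soil; cover with ~1.5 cm soil. Grow 14 days in greenhouse, 25° C. to 30° C. Spray foliage with emulsion diluted to predetermined amount. Rate effect after 3 weeks.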

[2] = tested on: southern crabgrass; assay: Test Example 4: herbicidal effect by soil treatment (Table 19, symbol F); assay type: in vivo, southern crabgrass (Digitaria ciliaris)
Summary of the method: (§2)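 Soil-surface application: an emulsion agent diluted with water to the predetermined dose is sprayed uniformly over seeds lying under roughly 1.5 cm of sterilized diluvial soil. Boxes stay in a greenhouse at 25° C. to 30° C. Three weeks later, each species is graded on previously defined criteria.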

[3] = tested on: green foxtail; assay: Test Example 4: herbicidal effect by soil treatment (Table 19, symbol G); assay type: in vivo, green foxtail (Setaria viridis)
Summary of the method: as §2

[4] = tested on: barnyard grass; assay: Test Example 4: herbicidal effect by soil treatment (Table 19, symbol H); assay type: in vivo, barnyard grass (Echinochloa crus-galli)
Summary of the method: as §2

[5] = tested on: green foxtail; assay: Test Example 5: herbicidal effect by foliage application, plastic box (Table 20, symbol G); assay type: in vivo, green foxtail (Setaria viridis); conditions: foliage application, evaluated three weeks after application
Summary of the method: as §1

[6] = tested on: redroot pigweed; assay: Test Example 4: herbicidal effect by soil treatment (Table 19, symbol N); assay type: in vivo, redroot pigweed (Amaranthus retroflexus)
Summary of the method: as §2

[7] = tested on: late watergrass; assay: Test Example 1: herbicidal activity, application before weed generation under submerged conditions (Table 16, symbol A); assay type: in vivo, late watergrass (Echinochloa oryzicola); conditions: 320 g/ha applied herbicide
Summary of the method: (§3)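 Emulsion formulation, water-diluted to set dose, was put onto the flooded surface (4 cm depth, alluvial soil) the same day weeds were sown and 2.5-leaf rice transplanted. After 3 weeks at 25-30 °C under glass, each species was rated 0 (≤5% kill) to 5 (≥90% kill).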

[8] = tested on: chickweed; assay: Test Example 5: herbicidal effect by foliage application, plastic box (Table 20, symbol P); assay type: in vivo, common chickweed (Stellaria media); conditions: foliage application, evaluated three weeks after application
Summary of the method: as §1

[9] = tested on: oval-leafed pondweed; assay: Test Example 1: herbicidal activity, application before weed generation under submerged conditions (Table 16, symbol C); assay type: in vivo, oval-leafed pondweed (Monochoria vaginalis); conditions: 320 g/ha applied herbicide
Summary of the method: as §3

[10] = tested on: Chinese sprangletop; assay: Test Example 3: herbicidal effect by foliage application, Wagner pot (Table 18, symbol D); assay type: in vivo, chinese sprangletop (Leptochloa chinensis)
Summary of the method: (§4)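 Plants were sown in alluvial soil held under 0.1–0.5 cm standing water and grown 14 days in a greenhouse at 25–30 °C. An emulsifiable formulation, water-diluted to the set dose, was then sprayed onto the foliage, and effects were scored three weeks later using previously defined criteria.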

[11] = tested on: Italian ryegrass; assay: Test Example 4: herbicidal effect by soil treatment (Table 19, symbol K); assay type: in vivo, Italian ryegrass (Lolium multiflorum)
Summary of the method: as §2

[12] = tested on: windgrass; assay: Test Example 5: herbicidal effect by foliage application, plastic box (Table 20, symbol L); assay type: in vivo, windgrass (Apera spica-venti); conditions: foliage application, evaluated three weeks after application
Summary of the method: as §1

[13] = tested on: rice flat sedge; assay: Test Example 3: herbicidal effect by foliage application, Wagner pot (Table 18, symbol E); assay type: in vivo, rice flat sedge (Cyperus iria)
Summary of the method: as §4

[14] = tested on: Japanese bulrush; assay: Test Example 1: herbicidal activity, application before weed generation under submerged conditions (Table 16, symbol B); assay type: in vivo, Japanese bulrush (Schoenoplectus juncoides); conditions: 320 g/ha applied herbicide
Summary of the method: as §3

[15] = tested on: wild oat; assay: Test Example 5: herbicidal effect by foliage application, plastic box (Table 20, symbol I); assay type: in vivo, wild oat (Avena fatua); conditions: foliage application, evaluated three weeks after application
Summary of the method: as §1

[16] = tested on: Italian ryegrass; assay: Test Example 5: herbicidal effect by foliage application, plastic box (Table 20, symbol K); assay type: in vivo, Italian ryegrass (Lolium multiflorum); conditions: foliage application, evaluated three weeks after application
Summary of the method: as §1

[17] = tested on: persian speedwell; assay: Test Example 5: herbicidal effect by foliage application, plastic box (Table 20, symbol R); assay type: in vivo, Persian speedwell (Veronica persica); conditions: foliage application, evaluated three weeks after application
Summary of the method: as §1

[18] = tested on: barnyard grass; assay: Test Example 5: herbicidal effect by foliage application, plastic box (Table 20, symbol H); assay type: in vivo, barnyard grass (Echinochloa crus-galli); conditions: foliage application, evaluated three weeks after application
Summary of the method: as §1

[19] = tested on: blackgrass; assay: Test Example 4: herbicidal effect by soil treatment (Table 19, symbol J); assay type: in vivo, blackgrass (Alopecurus myosuroides)
Summary of the method: as §2

[20] = tested on: velvetleaf; assay: Test Example 5: herbicidal effect by foliage application, plastic box (Table 20, symbol M); assay type: in vivo, velvetleaf (Abutilon theophrasti); conditions: foliage application, evaluated three weeks after application
Summary of the method: as §1

[21] = tested on: wild oat; assay: Test Example 4: herbicidal effect by soil treatment (Table 19, symbol I); assay type: in vivo, wild oat (Avena fatua)
Summary of the method: as §2

[22] = tested on: windgrass; assay: Test Example 4: herbicidal effect by soil treatment (Table 19, symbol L); assay type: in vivo, windgrass (Apera spica-venti)
Summary of the method: as §2

[23] = tested on: lambsquarters; assay: Test Example 4: herbicidal effect by soil treatment (Table 19, symbol O); assay type: in vivo, lambsquarters (Chenopodium album)
Summary of the method: as §2

[24] = tested on: blackgrass; assay: Test Example 5: herbicidal effect by foliage application, plastic box (Table 20, symbol J); assay type: in vivo, blackgrass (Alopecurus myosuroides); conditions: foliage application, evaluated three weeks after application
Summary of the method: as §1

[25] = tested on: lambsquarters; assay: Test Example 5: herbicidal effect by foliage application, plastic box (Table 20, symbol O); assay type: in vivo, lambsquarters (Chenopodium album); conditions: foliage application, evaluated three weeks after application
Summary of the method: as §1

[26] = tested on: barnyard grass; assay: Test Example 3: herbicidal effect by foliage application, Wagner pot (Table 18, symbol H); assay type: in vivo, barnyard grass (Echinochloa crus-galli)
Summary of the method: as §4

[27] = tested on: false cleavers; assay: Test Example 4: herbicidal effect by soil treatment (Table 19, symbol Q); assay type: in vivo, false cleavers (Galium spurium)
Summary of the method: as §2

[28] = tested on: redroot pigweed; assay: Test Example 5: herbicidal effect by foliage application, plastic box (Table 20, symbol N); assay type: in vivo, redroot pigweed (Amaranthus retroflexus); conditions: foliage application, evaluated three weeks after application
Summary of the method: as §1

[29] = tested on: velvetleaf; assay: Test Example 4: herbicidal effect by soil treatment (Table 19, symbol M); assay type: in vivo, velvetleaf (Abutilon theophrasti)
Summary of the method: as §2

[30] = tested on: chickweed; assay: Test Example 4: herbicidal effect by soil treatment (Table 19, symbol P); assay type: in vivo, common chickweed (Stellaria media); conditions: amount of applied herbicide 320 g/ha
Summary of the method: as §2

[31] = amount of applied herbicide 320 g/ha

CCCC(=O)Oc1c(C)nn(C)c(=O)c1-c1c(-c2ccc(Cl)c(Cl)c2)sc2ccc(F)cc12 [2-082]
herbicidal effect on F: southern crabgrass ([1]; 320 g/ha): 0 (Herbicidal rate of 5% or less (almost no effect))
herbicidal effect rating, F: southern crabgrass ([2]; 320 g/ha): 1 (Herbicidal rate of 5% or more and less than 20%)
herbicidal effect rating, G: green foxtail ([3]; 320 g/ha): 0 (Herbicidal rate of 5% or less (almost no effect))
herbicidal effect rating, H: barnyard grass ([4]; 320 g/ha): 0 (Herbicidal rate of 5% or less (almost no effect))
herbicidal effect on G: green foxtail ([5]; 320 g/ha): 0 (Herbicidal rate of 5% or less (almost no effect))
herbicidal effect rating, N: redroot pigweed ([6]; 320 g/ha): 3 (Herbicidal rate of 40% or more and less than 70%)
Herbicidal effect on A: late watergrass (grade 0-5) [7]: 2 (Herbicidal rate of 20% or more and less than 40%)
herbicidal effect on P: chickweed ([8]; 320 g/ha): 5 (Herbicidal rate of 90% or more (almost completely withered))
Herbicidal effect on C: oval-leafed pondweed (grade 0-5) [9]: 0 (Herbicidal rate of 5% or less (almost no effect))
herbicidal effect on D (Chinese sprangletop), rating 0-5 ([10]; 320 g/ha): 2 (Herbicidal rate of 20% or more and less than 40%)
herbicidal effect rating, K: Italian ryegrass ([11]; 320 g/ha): 0 (Herbicidal rate of 5% or less (almost no effect))
herbicidal effect on L: windgrass ([12]; 320 g/ha): 0 (Herbicidal rate of 5% or less (almost no effect))
herbicidal effect on E (rice flat sedge), rating 0-5 ([13]; 320 g/ha): 4 (Herbicidal rate of 70% or more and less than 90%)
Herbicidal effect on B: Japanese bulrush (grade 0-5) [14]: 3 (Herbicidal rate of 40% or more and less than 70%)
herbicidal effect on I: wild oat ([15]; 320 g/ha): 0 (Herbicidal rate of 5% or less (almost no effect))
herbicidal effect on K: Italian ryegrass ([16]; 320 g/ha): 0 (Herbicidal rate of 5% or less (almost no effect))
herbicidal effect on R: persian speedwell ([17]; 320 g/ha): 3 (Herbicidal rate of 40% or more and less than 70%)
herbicidal effect on H: barnyard grass ([18]; 320 g/ha): 0 (Herbicidal rate of 5% or less (almost no effect))
herbicidal effect rating, J: blackgrass ([19]; 320 g/ha): 0 (Herbicidal rate of 5% or less (almost no effect))
herbicidal effect on M: velvetleaf ([20]; 320 g/ha): 3 (Herbicidal rate of 40% or more and less than 70%)
herbicidal effect rating, I: wild oat ([21]; 320 g/ha): 0 (Herbicidal rate of 5% or less (almost no effect))
herbicidal effect rating, L: windgrass ([22]; 320 g/ha): 0 (Herbicidal rate of 5% or less (almost no effect))
herbicidal effect rating, O: lambsquarters ([23]; 320 g/ha): 2 (Herbicidal rate of 20% or more and less than 40%)
herbicidal effect on J: blackgrass ([24]; 320 g/ha): 0 (Herbicidal rate of 5% or less (almost no effect))
herbicidal effect on O: lambsquarters ([25]; 320 g/ha): 3 (Herbicidal rate of 40% or more and less than 70%)
herbicidal effect on H (barnyard grass), rating 0-5 ([26]; 320 g/ha): 4 (Herbicidal rate of 70% or more and less than 90%)
herbicidal effect rating, Q: false cleavers ([27]; 320 g/ha): 0 (Herbicidal rate of 5% or less (almost no effect))
herbicidal effect on N: redroot pigweed ([28]; 320 g/ha): 3 (Herbicidal rate of 40% or more and less than 70%)
herbicidal effect rating, M: velvetleaf ([29]; 320 g/ha): 0 (Herbicidal rate of 5% or less (almost no effect))

Cc1nn(C)c(=O)c(-c2c(-c3ccc(CSCC(F)F)cc3)sc3ccc(F)cc23)c1O [2-330]
F: southern crabgrass, herbicidal effect (criteria 0-5) ([1]; AAH 320 g/ha): 5 (Herbicidal rate of 90% or more (almost completely withered))
herbicidal effect on F: southern crabgrass [2, 31]: 3 (Herbicidal rate of 40% or more and less than 70%)
herbicidal effect on G: green foxtail [3, 31]: 1 (Herbicidal rate of 5% or more and less than 20%)
herbicidal effect on H: barnyard grass [4, 31]: 2 (Herbicidal rate of 20% or more and less than 40%)
G: green foxtail, herbicidal effect (criteria 0-5) ([5]; AAH 320 g/ha): 5 (Herbicidal rate of 90% or more (almost completely withered))
herbicidal effect on N: redroot pigweed [6, 31]: 4 (Herbicidal rate of 70% or more and less than 90%)
Herbicidal effect on A: late watergrass (grade 0-5) [7]: 3 (Herbicidal rate of 40% or more and less than 70%)
P: chickweed, herbicidal effect (criteria 0-5) ([8]; AAH 320 g/ha): 5 (Herbicidal rate of 90% or more (almost completely withered))
Herbicidal effect on C: oval-leafed pondweed (grade 0-5) [9]: 0 (Herbicidal rate of 5% or less (almost no effect))
herbicidal effect on D: Chinese sprangletop [10, 31]: 2 (Herbicidal rate of 20% or more and less than 40%)
herbicidal effect on K: Italian ryegrass [11, 31]: 4 (Herbicidal rate of 70% or more and less than 90%)
L: windgrass, herbicidal effect (criteria 0-5) ([12]; AAH 320 g/ha): 5 (Herbicidal rate of 90% or more (almost completely withered))
herbicidal effect on E: rice flat sedge [13, 31]: 4 (Herbicidal rate of 70% or more and less than 90%)
Herbicidal effect on B: Japanese bulrush (grade 0-5) [14]: 0 (Herbicidal rate of 5% or less (almost no effect))
I: wild oat, herbicidal effect (criteria 0-5) ([15]; AAH 320 g/ha): 4 (Herbicidal rate of 70% or more and less than 90%)
K: Italian ryegrass, herbicidal effect (criteria 0-5) ([16]; AAH 320 g/ha): 5 (Herbicidal rate of 90% or more (almost completely withered))
R: persian speedwell, herbicidal effect (criteria 0-5) ([17]; AAH 320 g/ha): 5 (Herbicidal rate of 90% or more (almost completely withered))
H: barnyard grass, herbicidal effect (criteria 0-5) ([18]; AAH 320 g/ha): 5 (Herbicidal rate of 90% or more (almost completely withered))
herbicidal effect on J: blackgrass [19, 31]: 0 (Herbicidal rate of 5% or less (almost no effect))
M: velvetleaf, herbicidal effect (criteria 0-5) ([20]; AAH 320 g/ha): 5 (Herbicidal rate of 90% or more (almost completely withered))
herbicidal effect on I: wild oat [21, 31]: 0 (Herbicidal rate of 5% or less (almost no effect))
herbicidal effect on L: windgrass [22, 31]: 0 (Herbicidal rate of 5% or less (almost no effect))
herbicidal effect on O: lambsquarters [23, 31]: 3 (Herbicidal rate of 40% or more and less than 70%)
herbicidal effect on P: chickweed [30]: 0 (Herbicidal rate of 5% or less (almost no effect))
J: blackgrass, herbicidal effect (criteria 0-5) ([24]; AAH 320 g/ha): 4 (Herbicidal rate of 70% or more and less than 90%)
O: lambsquarters, herbicidal effect (criteria 0-5) ([25]; AAH 320 g/ha): 5 (Herbicidal rate of 90% or more (almost completely withered))
herbicidal effect on H: barnyard grass [26, 31]: 5 (Herbicidal rate of 90% or more (almost completely withered))
herbicidal effect on Q: false cleavers [27, 31]: 0 (Herbicidal rate of 5% or less (almost no effect))
N: redroot pigweed, herbicidal effect (criteria 0-5) ([28]; AAH 320 g/ha): 5 (Herbicidal rate of 90% or more (almost completely withered))
herbicidal effect on M: velvetleaf [29, 31]: 1 (Herbicidal rate of 5% or more and less than 20%)
